How the values were obtained:
human NaPi-IIb = biological target: T1, human NaPi-IIb (Homo sapiens, UniProt O95436); test: Inhibitory effect on 33PO4 uptake into human NaPi-IIb-expressing CHO cells; format: cell-based; conditions: read-out: IC50
T1 construct: expressed in transfected cells
T1 sequence (O95436 1-690): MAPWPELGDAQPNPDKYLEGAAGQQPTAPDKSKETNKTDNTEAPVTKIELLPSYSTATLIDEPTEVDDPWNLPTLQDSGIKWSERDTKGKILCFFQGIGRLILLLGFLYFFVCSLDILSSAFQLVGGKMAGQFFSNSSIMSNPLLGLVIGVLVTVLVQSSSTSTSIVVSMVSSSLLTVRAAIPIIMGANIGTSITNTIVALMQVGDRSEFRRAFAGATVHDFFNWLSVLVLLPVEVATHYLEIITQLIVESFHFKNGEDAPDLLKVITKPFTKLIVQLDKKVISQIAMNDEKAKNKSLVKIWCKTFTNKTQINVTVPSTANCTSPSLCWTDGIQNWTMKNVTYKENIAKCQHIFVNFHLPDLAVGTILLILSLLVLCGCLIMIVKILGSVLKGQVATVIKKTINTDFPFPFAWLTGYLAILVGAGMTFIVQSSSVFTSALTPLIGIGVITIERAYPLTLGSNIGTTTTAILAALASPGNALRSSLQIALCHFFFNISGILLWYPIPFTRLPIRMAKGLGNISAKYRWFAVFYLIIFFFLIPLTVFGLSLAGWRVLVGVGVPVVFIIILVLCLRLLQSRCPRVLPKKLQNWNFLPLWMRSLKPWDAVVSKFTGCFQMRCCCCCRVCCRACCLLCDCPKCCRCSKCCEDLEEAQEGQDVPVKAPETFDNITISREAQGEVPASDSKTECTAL
Method in brief: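 Uptake of ³³PO4 was measured by scintillation counting after ice-cold buffer A washes. Cells were CHO stably expressing human NaPi-IIb, seeded overnight, and exposed to ³³PO4 in buffer A at room temperature.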

human PiT-2 = biological target: T2, human PiT-2 (Homo sapiens, UniProt Q08357); test: Inhibitory effect on 33PO4 uptake into human PiT-2-expressing CHO cells; format: cell-based; conditions: pH 6.5, read-out: IC50 against 33PO4 uptake into human PiT-2-expressing cells
T2 construct: expressed in transfected cells; host or cells: CHO cells
T2 sequence (Q08357 1-652): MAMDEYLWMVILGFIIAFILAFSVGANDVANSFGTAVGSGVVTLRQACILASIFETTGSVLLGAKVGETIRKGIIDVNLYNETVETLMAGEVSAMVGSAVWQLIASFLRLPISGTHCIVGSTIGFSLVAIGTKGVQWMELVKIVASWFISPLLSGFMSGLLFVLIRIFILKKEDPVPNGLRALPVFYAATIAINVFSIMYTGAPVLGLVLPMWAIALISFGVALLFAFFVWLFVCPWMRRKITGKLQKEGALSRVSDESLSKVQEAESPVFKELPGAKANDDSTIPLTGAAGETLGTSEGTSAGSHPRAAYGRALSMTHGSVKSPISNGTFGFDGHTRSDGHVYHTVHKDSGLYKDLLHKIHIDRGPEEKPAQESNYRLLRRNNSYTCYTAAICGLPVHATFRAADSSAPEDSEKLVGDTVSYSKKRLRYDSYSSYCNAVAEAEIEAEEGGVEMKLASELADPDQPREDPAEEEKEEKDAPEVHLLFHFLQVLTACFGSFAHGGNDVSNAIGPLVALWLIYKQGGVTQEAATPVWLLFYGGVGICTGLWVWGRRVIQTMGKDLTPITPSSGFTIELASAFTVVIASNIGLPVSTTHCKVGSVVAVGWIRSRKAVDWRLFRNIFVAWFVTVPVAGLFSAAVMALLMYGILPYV
Method in brief: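 CHO cells transfected with human PiT-2 or empty vector, then exposed to ^33PO4 at room temperature after compound preincubation. Uptake counted by scintillation. Inhibition computed from PiT-2 minus vector-cell uptake, relative to the DMSO control.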

human PiT-1 = biological target: T3, human PiT-1 (Homo sapiens, UniProt Q8WUM9); test: Inhibitory effect on 33PO4 uptake into human PiT-1-expressing CHO cells; format: cell-based; conditions: compound 0.24, 1.2, 6 or 30 μM, pH 6.5, read-out: IC50 against 33PO4 uptake into human PiT-1-expressing cells
T3 construct: expressed in transfected cells; host or cells: CHO cells
T3 sequence (Q8WUM9 1-679): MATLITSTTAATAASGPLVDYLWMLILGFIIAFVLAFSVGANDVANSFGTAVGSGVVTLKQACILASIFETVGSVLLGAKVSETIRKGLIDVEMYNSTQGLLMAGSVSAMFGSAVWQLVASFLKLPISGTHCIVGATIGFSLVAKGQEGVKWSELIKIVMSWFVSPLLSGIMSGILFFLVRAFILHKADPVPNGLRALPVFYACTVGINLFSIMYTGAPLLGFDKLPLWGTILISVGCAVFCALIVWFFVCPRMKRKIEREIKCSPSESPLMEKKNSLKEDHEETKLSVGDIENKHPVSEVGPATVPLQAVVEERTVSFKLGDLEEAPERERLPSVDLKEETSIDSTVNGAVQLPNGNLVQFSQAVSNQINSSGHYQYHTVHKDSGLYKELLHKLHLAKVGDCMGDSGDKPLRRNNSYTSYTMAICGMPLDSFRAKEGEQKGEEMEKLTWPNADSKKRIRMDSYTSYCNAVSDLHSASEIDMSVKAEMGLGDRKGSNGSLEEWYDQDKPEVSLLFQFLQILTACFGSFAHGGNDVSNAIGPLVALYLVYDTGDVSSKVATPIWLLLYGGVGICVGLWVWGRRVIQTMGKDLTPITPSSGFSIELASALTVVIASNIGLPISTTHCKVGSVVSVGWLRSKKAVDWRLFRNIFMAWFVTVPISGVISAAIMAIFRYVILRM
Procedure: Test Example 3: Inhibitory Effect on ^33PO4 Uptake into Human PiT-1-Expressing Cell
CHO cells were transfected with human PiT-1 expression plasmids or empty vectors to prepare human PiT-1-expressing cells and empty vector-expressing cells. The human PiT-1-expressing cells or the empty vector-expressing cells were inoculated to a 96-well plate and incubated overnight in a CO2 incubator. […] After a given time, a 1/20 volume of buffer A containing ^33PO4 was added thereto and reacted at room temperature. After washing with ice-cold buffer A, a liquid scintillator was added to each reaction mixture, and the amount of ^33PO4 uptake was measured using TopCount. The rate of inhibition was determined according to the following expression: Rate (%) of inhibition=(1−(Amount of ^33PO4 uptake in the compound-supplemented well containing the human PiT-1-expressing cells−Amount of ^33PO4 uptake in the compound-supplemented well containing the empty vector-expressing cells)/(Amount of ^33PO4 uptake in the DMSO-supplemented well containing the human PiT-1-expressing cells −Amount of ^33PO4 uptake in the DMSO-supplemented well containing the empty vector-expressing cells))×100

[1] = test system: adenine-induced renal failure rat; test: Suppressive effect on rise in serum phosphorus concentration of adenine-induced renal failure rat (0.1% in feed, 3 days); format: in vivo; conditions: feed or water, 72 h, 0.1% of mass concentration in feed, read-out: Rate of inhibition (%) (suppression of a rise in serum phosphorus concentration)
Description: Test Example 5: Suppressive Effect on Rise in Serum Phosphorus Concentration of Adenine-Induced Renal Failure Rat
Adenine was forcedly administered orally to each Wistar male rat (7-8 weeks old) to impair renal functions and thereby prepare a hyperphosphatemia model (Katsumata K, Kusano K, Hirata M, Tsunemi K, Nagano N, Burke S K, Fukushima N. Sevelamer hydrochloride prevents ectopic calcification and renal osteodystrophy in chronic renal failure rats. Kidney Int. 2003 August; 64 (2): 441-50). Each test compound was mixed at a ratio of 0.1% of mass concentration with feed. The animal was fed with a given amount of the feed for 3 days. A group given feed non-supplemented with a test compound was used as a reference pathological group, and an adenine-unadministered group given feed non-supplemented with a test compound was used as a normal group. […] Serum phosphorus concentrations were measured by the Fiske-Subbarow method. The rate of suppression of a rise in serum phosphorus concentration was determined according to the following expression: Rate (%) of suppression of a rise in serum phosphorus concentration=(1−[(Serum phosphorus concentration of the test compound-treated pathological group)−(Serum phosphorus concentration of the normal group)]/[(Serum phosphorus concentration of the reference pathological group)−(Serum phosphorus concentration of the normal group)])×100

IC50 (human NaPi-IIb) [µM]	IC50 (human PiT-2) [µM]	IC50 (human PiT-1) [µM]	Structure (SMILES)	inhibition in vivo at 0.1 %, 0.1 % in feed [1] [%]
13.7	8.7	6.5	C[C@]12CCCN1N(Cc1ccc(C#CCCCC(=O)O)c(F)c1F)C(=O)C(C(=O)Nc1ccc(C(F)(F)F)cc1-c1cc(C(F)(F)F)ncn1)=C2O [Example 129, 6-[4-[[(4aR)-4-Hydroxy-4a-methyl-2-oxo-3-[[4-(trifluoromethyl)-2-[6-(trifluoromethyl)pyrimidin-4-yl]phenyl]carbamoyl]-6,7-dihydro-5H-pyrrolo[1,2-b]pyridazin-1-yl]methyl]-2,3-difluorophenyl]hex-5-ynoic acid]	–
2.8	3.6	–	C[C@]12CCCN1N(Cc1cccc(F)c1F)C(=O)C(C(=O)Nc1ccc(C(F)(F)F)cc1-c1cc(C(F)(F)F)ncn1)=C2O [Example 21, (4aR)-1-[(2,3-Difluoro-phenyl)methyl]-4-hydroxy-4a-methyl-2-oxo-N-[4-(trifluoromethyl)-2-[6-(trifluoromethyl)pyrimidin-4-yl]phenyl]-6,7-dihydro-5H-pyrrolo [1,2-b]pyridazine-3-carboxamide]	24
16.8	–	–	C[C@]12CCCN1N(Cc1ccc(OCCN3CCOCC3)c(F)c1F)C(=O)C(C(=O)Nc1ccc(C(F)(F)F)cc1-c1ccnc(C#N)c1)=C2O [Example 52, (4aR)-N-[2-(2-Cyanopyridin-4-yl)-4-(trifluoromethyl)phenyl]-1-[[2,3-difluoro-4-(2-morpholin-4-ylethoxy)phenyl]methyl]-4-hydroxy-4a-methyl-2-oxo-6,7-dihydro-5H-pyrrolo[1,2-b]pyridazine-3-carboxamide]	20
